Measurements taken from US11384078B2, “5,6-fused-bicyclic compounds and compositions for the treatment of parasitic diseases” (NOVARTIS AG, priority 2017, dated 2022).

What was measured:
Format in all cases: cell-based
[1] = system: Leishmania donovani axenic amastigote; test: In vitro assay for growth inhibition of Leishmania donovani axenic amastigote (Cell TiterGlo luminescence); conditions: Leishmania donovani, L. donovani axenic amastigotes in vitro; read-out: L. donovani amastigotes EC50
In short: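 Compound-treated wells received 9600 axenic amastigotes in RPMI 1640-based medium at pH 5.5 (37 °C, 5% CO2). Growth measured as ATP luminescence (CellTiter-Glo) after 2-day incubation; DMSO and reference compounds served as controls.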

[2] = system: L. donovani HU3 strain in mouse peritoneal macrophages; test: Assay for inhibition of parasitemia of Leishmania donovani in mouse macrophages (SYBR Green nuclei count, high-content imaging); conditions: Leishmania donovani, Peritoneal macrophage, L. donovani in mouse peritoneal macrophages; read-out: L. donovani in Mouse Macrophages EC50
In short: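 Parasite numbers were counted from SYBR Green-stained nuclei imaged by high-content microscopy after paraformaldehyde fixation and Triton permeabilization. Before this, compound was applied for 5 days at 37° C to BALB/c peritoneal macrophages (2×10^4/well) that had been exposed 24 h to 4×10^5 L. donovani HU3 amastigotes harvested from infected mouse spleens.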

[3] = system: Trypanosoma cruzi amastigotes cultured in 3T3 fibroblast cells; test: Assay for growth inhibition of kinetoplastid parasite Trypanosoma cruzi (beta-galactosidase Tulahuen strain, CPRG readout); conditions: Trypanosoma cruzi, Fibroblast, T. cruzi amastigotes in 3T3 fibroblast cells; read-out: Buckner infectious T. cruzi EC50
In short: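 3T3 fibroblasts (1,000 cells/well) plated overnight, treated with compound in DMSO, then infected with 10,000 Lac-Z-expressing Tulahuen trypomastigotes. After 6 days, 0.6 mM CPRG with 0.6% NP-40 added for 2 h at room temperature; absorbance gives relative intracellular amastigote numbers. Benznidazole and nifurtimox serve as positive controls.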

[4] = system: Trypanosoma brucei brucei (Lister 427) strain; test: Assay for growth inhibition against Trypanosoma brucei brucei (Cell TiterGlo ATP luminescence); conditions: Trypanosoma brucei, T. brucei brucei (Lister 427); read-out: T. Brucei (HAT) EC50
In short: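 Growth read-out is cellular ATP by CellTiter-Glo luminescence, measured 30 min after reagent addition, following 2-day incubation at 37 °C in CO2. Parasites (10,000/mL, HMI-9 plus 10% FBS and 10% serum plus) faced 10 threefold dilutions in duplicate; IC50 taken as 50% growth inhibition versus untreated.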

Compound | EC50 [1] | EC50 [2] | EC50 [3] | EC50 [4]
CCC(C)c1cnc2nn(-c3cc(NC(=O)N4CCC4)ccc3F)cc2c1 (stereo not shown) [Compound 96, N-{3-[5-(butan-2-yl)-2H-pyrazolo[3,4-b]pyridin-2-yl]-4-fluorophenyl}azetidine-1-carboxamide] | 23 nM | 21 nM | 18 nM | < 23 nM
O=C(Nc1ccc(F)c(-n2cc3cc(C4CCNCC4)cnc3n2)c1)N1CC(F)C1 [Compound 293, 3-fluoro-N-{4-fluoro-3-[5-(piperidin-4-yl)-2H-pyrazolo[3,4-b]pyridin-2-yl]phenyl}azetidine-1-carboxamide] | 6820 nM | 17600 nM | 1210 nM | 167 nM
O=C(Nc1ccc(F)c(-n2cc3cc(-c4ccccn4)cnc3n2)c1)c1ccco1 [Compound 64, N-{4-fluoro-3-[5-(pyridin-2-yl)-2H-pyrazolo[3,4-b]pyridin-2-yl]phenyl}furan-2-carboxamide] | 2.2 nM | 3.9 nM | 1 nM | < 23 nM
O=C(Nc1ccc(F)c(-n2cc3cc(N4CC5CCC4CO5)cnc3n2)c1)N1CC(F)C1 (stereo not shown) [Compound 197, 3-fluoro-N-[4-fluoro-3-(5-{2-oxa-5-azabicyclo[2.2.2]octan-5-yl}-2H-pyrazolo[3,4-b]pyridin-2-yl)phenyl}azetidine-1-carboxamide] | 199 nM | 13 nM | 37 nM | 5 nM
O=C(Nc1ccc(F)c(-n2cc3cc(N4CCCC4)cnc3n2)c1)N1CC(F)(F)C1 [Compound 161, 3,3-difluoro-N-{4-fluoro-3-[5-(pyrrolidin-1-yl)-2H-pyrazolo[3,4-b]pyridin-2-yl]phenyl}azetidine-1-carboxamide] | 7.7 nM | 7.3 nM | 9.8 nM | < 23 nM
O=C(Nc1ccc(F)c(-n2cc3cc(C(F)(F)F)cnc3n2)c1)N1CC(F)(F)C1 [Compound 324, 3,3-difluoro-N-{4-fluoro-3-[5-(trifluoromethyl)-2H-pyrazolo[3,4-b]pyridin-2-yl]phenyl}azetidine-1-carboxamide] | 15 nM | 45 nM | 16 nM | 37 nM
O=C(Nc1ccc(F)c(-n2cc3cc(C4CCC4)cnc3n2)c1)N1CC(F)C1 [Compound 20, N-(3-{5-cyclobutyl-2H-pyrazolo[3,4-b]pyridin-2-yl}-4-fluorophenyl)-3-fluoroazetidine-1-carboxamide] | 10 nM | 37 nM | 4.2 nM | < 23 nM
CCCC(C)c1cnc2nn(-c3cc(NC(=O)N4CCC4)ccc3F)cc2c1 (stereo not shown) [Compound 95, N-{4-fluoro-3-[5-(pentan-2-yl)-2H-pyrazolo[3,4-b]pyridin-2-yl]phenyl}azetidine-1-carboxamide] | 420 nM | 350 nM | 170 nM | 85 nM
CCC(C)c1cnc2nn(-c3cc(NC(=O)N4CC(F)C4)ccc3F)cc2c1 (stereo not shown) [Compound 25, N-{3-[5-(butan-2-yl)-2H-pyrazolo[3,4-b]pyridin-2-yl]-4-fluorophenyl}-3-fluoroazetidine-1-carboxamide] | 21 nM | 47 nM | 17 nM | < 23 nM
O=C(Nc1ccc(F)c(-n2cc3cc(N4CC(F)(F)C4)cnc3n2)c1)C1CC1 [Compound 326, N-{3-[5-(3,3-difluoroazetidin-1-yl)-2H-pyrazolo[3,4-b]pyridin-2-yl]-4-fluorophenyl}cyclopropanecarboxamide] | 189 nM | 761 nM | 119 nM | 236 nM
